Measurements: patent US20230278998A1, “Compound containing structure of a five-membered heteroaromatic ring, pharmaceutical compositions thereof and applications thereof” (280 Bio, Inc., priority 2022, published 2023)

Biological target: PARG (389-976) (Homo sapiens (Human), UniProt Q86W56)
Test: PARG enzyme inhibition assay (TR-FRET)
Format: biochemical
Method: PARG Enzyme Inhibition Assay
PARG in vitro assays were conducted in standard 384-well plates in a total volume of 15 μL.

Chain of PARG (389-976) (Q86W56 389-976): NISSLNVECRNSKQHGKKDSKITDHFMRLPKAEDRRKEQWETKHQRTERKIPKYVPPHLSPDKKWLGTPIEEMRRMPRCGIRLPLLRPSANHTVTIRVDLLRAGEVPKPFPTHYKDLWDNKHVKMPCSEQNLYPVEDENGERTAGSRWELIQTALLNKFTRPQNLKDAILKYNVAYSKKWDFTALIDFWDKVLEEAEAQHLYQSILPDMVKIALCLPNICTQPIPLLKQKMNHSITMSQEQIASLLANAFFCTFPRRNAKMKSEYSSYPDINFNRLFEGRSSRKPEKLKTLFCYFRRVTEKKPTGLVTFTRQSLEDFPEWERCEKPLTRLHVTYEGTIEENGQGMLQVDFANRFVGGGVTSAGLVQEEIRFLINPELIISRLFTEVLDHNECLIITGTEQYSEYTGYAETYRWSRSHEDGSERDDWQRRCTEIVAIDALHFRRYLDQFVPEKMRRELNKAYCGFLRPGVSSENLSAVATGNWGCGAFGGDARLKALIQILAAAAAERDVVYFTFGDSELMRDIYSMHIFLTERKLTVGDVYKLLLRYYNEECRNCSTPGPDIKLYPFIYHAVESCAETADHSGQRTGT

C[C@H](O)C(=O)N1CCN(c2cc(S(=O)(=O)NC3(C#N)CC3)cc3c(-c4nnc(C(F)F)s4)nn(CC(F)(F)F)c23)CC1 [Compound 110]
IC50 (Table 3, class symbol): < 100 nM

Cn1nc(-c2nnc(C(F)F)s2)c2cc(S(=O)(=O)NC3(C#N)CC3)cc(N3CCN(C(=O)c4ccccn4)CC3)c21 [Compound 43]
IC50 (Table 2, class symbol): < 100 nM

CC(C)C(=O)N1CCC(c2cc(S(=O)(=O)NC3(C#N)CC3)cc3c(-c4nnc(C(F)F)s4)nn(C)c23)CC1 [Compound 116]
IC50 (Table 3, class symbol): < 100 nM

CC(C)(O)C1CCN(c2cc(S(=O)(=O)NC3(C#N)CC3)cc3c(-c4nnc(C(F)F)s4)nn(CC(F)(F)F)c23)CC1 [Compound 105]
IC50 (Table 3, class symbol): < 100 nM

CCn1nc(-c2nnc(C(F)F)s2)c2cc(S(=O)(=O)NC3(C)CC3)cc(N3CCN(C(=O)C(C)C)[C@@H](C)C3)c21 [Compound 92]
IC50 (Table 3, class symbol): < 100 nM

CC(C)C(=O)N1CCN(c2cc(S(=O)(=O)NC3(C#N)CC3)cc3c(-c4nnc(C(F)F)s4)nn(CC(F)(F)F)c23)C[C@H]1C [Compound 109]
IC50 (Table 3, class symbol): < 100 nM

CC(=O)N1CCN(c2cc(S(=O)(=O)NC3(C#N)CC3)cc3c(-c4nnc(C(F)F)s4)nn(C)c23)CC1 [Compound 32]
IC50 (Table 2, class symbol): < 100 nM

N#CC1(NS(=O)(=O)c2cc(N3CC4(CCOCC4)C3)c3c(c2)c(-c2nnc(C(F)F)s2)nn3CC(F)(F)F)CC1 [Compound 133]
IC50 (Table 3, class symbol): < 100 nM

Cc1nc(C)c(Cn2nc(-c3nnc(C(F)F)s3)c3cc(S(=O)(=O)NC4(C)CC4)cnc32)s1 [Compound 9]
IC50 (Table 1, class symbol): < 100 nM

C[C@H](N)C(=O)N1CC=C(c2cc(S(=O)(=O)NC3(C#N)CC3)cc3c(-c4nnc(C(F)F)s4)nn(C)c23)CC1 [Compound 81]
IC50 (Table 3, class symbol): < 100 nM

CC(C)C(=O)N1CCN(c2cc(S(=O)(=O)NC3(C#N)CC3)cc3c(-c4nnc(C(F)F)s4)nn(C)c23)C[C@H]1C [Compound 69]
IC50 (Table 3, class symbol): < 100 nM

Cc1nc(C)c(Cn2c(Cl)c(-c3nnc(C(F)F)s3)c3cc(S(=O)(=O)NC4(C)CC4)ccc32)s1 [Compound 7]
IC50 (Table 1, class symbol): < 100 nM

Cn1nc(-c2nnc(C(F)F)s2)c2cc(S(=O)(=O)NC3(C#N)CC3)cc(N3CC4CCC(C3)N4C(=O)C3CCCC3)c21 [Compound 75]
IC50 (Table 3, class symbol): < 100 nM

C[C@H](N)C(=O)N1C2C=C(c3cc(S(=O)(=O)NC4(C#N)CC4)cc4c(-c5nnc(C(F)F)s5)nn(C)c34)CC1CC2 (stereo partly shown) [Compound 79]
IC50 (Table 3, class symbol): < 100 nM

Cn1nc(-c2nnc(C(F)F)s2)c2cc(S(=O)(=O)NC3(C#N)CC3)cc(C3CCC(C(=O)N4CCCC4)CC3)c21 (stereo not shown) [Compound 140]
IC50 (Table 3, class symbol): < 100 nM

CC(C)C(=O)N1CCN(c2cc(S(=O)(=O)NC3(C#N)CC3)cc3c(-c4nnc(C(F)F)s4)nn(CC(F)(F)F)c23)CC1 [Compound 30]
IC50 (Table 2, class symbol): < 100 nM

C[C@@H]1CN(c2cc(S(=O)(=O)NC3(C#N)CC3)cc3c(-c4nnc(C(F)F)s4)nn(C)c23)CCO1 [Compound 37]
IC50 (Table 2, class symbol): < 100 nM

CC(C)C(=O)N1C2CCC1CN(c1cc(S(=O)(=O)NC3(C#N)CC3)cc3c(-c4nnc(C(F)F)s4)nn(C)c13)C2 [Compound 102]
IC50 (Table 3, class symbol): < 100 nM

CCC(=O)N1CCN(c2cc(S(=O)(=O)NC3(C#N)CC3)cc3c(-c4nnc(C(F)F)s4)nn(C)c23)CC1 [Compound 45]
IC50 (Table 2, class symbol): < 100 nM

CC(C)C(=O)N1CCN(c2cc(S(=O)(=O)NC3(C)CC3)cc3c(-c4nnc(C(F)F)s4)nn(CC4CC4)c23)CC1 [Compound 15]
IC50 (Table 2, class symbol): < 100 nM

CC(C)C(=O)N1C2COCC1CN(c1cc(S(=O)(=O)NC3(C#N)CC3)cc3c(-c4nnc(C(F)F)s4)nn(C)c13)C2 [Compound 86]
IC50 (Table 3, class symbol): < 100 nM

CC(C)C(=O)N1CCN(c2cc(S(=O)(=O)NC3(C)CC3)cc3c(-c4nnc(C(F)F)s4)nn(CC(F)(F)F)c23)CC1 [Compound 23]
IC50 (Table 2, class symbol): < 100 nM

CCn1nc(-c2nnc(C(F)F)s2)c2c(F)c(S(=O)(=O)NC3(C)CC3)cc(N3CCN(C(=O)C(C)C)CC3)c21 [Compound 66]
IC50 (Table 3, class symbol): < 100 nM

CC(C)CN1CCN(c2cc(S(=O)(=O)NC3(C#N)CC3)cc3c(-c4nnc(C(F)F)s4)nn(C)c23)CC1 [Compound 49]
IC50 (Table 2, class symbol): < 100 nM

CN(C)C(=O)C1CCN(c2cc(S(=O)(=O)NC3(C#N)CC3)cc3c(-c4nnc(C(F)F)s4)nn(C)c23)CC1 [Compound 90]
IC50 (Table 3, class symbol): < 100 nM
